These results are taken from US20160168147A1, “ISOTOPICALLY ENRICHED AZAINDOLES” (Vertex Pharmaceuticals Incorporated, priority 2013, published 2016).

The data set concerns Cryopreserved Human Hepatocytes. The data set can be described thus: Assessment of metabolite profile and kinetic isotope effect in human hepatocytes (Example 6). The data set is classed as in vitro ADME. The conditions noted are these: 3 μM and 10 μM, sampled at 120 minutes, LC-MS MRM. Here is the method:
Cryopreserved Human Hepatocytes lot TFF (purchased from Celsis) were used. Hepatocytes were thawed using CHRM and suspended in Williams E media containing cell maintenance supplement package. 1000 μL of a final cell concentration 1 million cells/mL were placed in individual incubation wells (24-well plate set-up). Incubation was conducted at 37° C. and kept in a CO2/O2 humidified incubator. 10 μL of compound stock was spiked into cell the matrix to achieve final incubation concentrations of 3 μM and 10 μM. The matrix was swirled prior to the removal of each time-point and 50 μL of sample were removed and added to 200 μL of acetonitrile containing internal standard, IS. Time-points were sampled at 120 minutes using MRM on an ABSciex API5500-QTrap paired with an Agilent 1290 UPLC and a CTC PAL autosampler. A 20-minute gradient method using a HALO C18 2.1×50 mm 2.7 μm column made by Advanced Materials Technology was used for the analysis. /

Each structure is given as a SMILES string.

For the compound `[2H]c1[nH]c2ncccc2c1-c1nccc(N[C@](C)(CC)C(=O)NCC(F)(F)F)n1` [Compound 1-a, (2R)-2-[[2-(2-deuterio-1H-pyrrolo[2,3-b]pyridin-3-yl)pyrimidin-4-yl]amino]-2-methyl-N-(2.2.2-trifluoroethyl)butanamide], the new metabolites observed entry is given as “no new metabolites were observed”.
